Assay results reported in US20230062486A1, “KRAS G12C INHIBITOR AND PHARMACEUTICAL USE THEREOF” (Betta Pharmaceuticals Co., LTD, priority 2019, published 2023).
pIC50: −log10 of the molar value.

Columns and labels:
MIA-PACA-2 cells = experiment: Cell proliferation assay, MIA-PACA-2 cells (Cell-titer Glo); format: cell-based; conditions: Homo sapiens; inhibiting MIA-PACA-2 cells, 96-well ultra-low adsorption plate, 96 h incubation, Cell-titer Glo luminescence
Description: (§1) Pave the MIA-PACA-2 cells into a 96-well ultra-low adsorption plate at 600 cells, 160 μL/well. After incubating overnight, compound solutions of gradient concentration was prepared, and added 40 μL of DMSO solution of the test compound of each concentration to the cells of each well. The final concentration of the compound is 10000, 2000, 400, 80, 16, 3.2, 0.64, 0.12, 0.025, 0 nM (the final concentration of DMSO is 0.25%). Incubated for 96 h at 37° C. and 5% CO2. 50 μL of Cell-titer Glo working solution was added to each well, shaked and mixed, and incubated at room temperature for 10 minutes. The multi-functional microplate reader read the luminescence value, and converted the luminescence value reading into inhibition percentage.
(§2) Inhibition percentage=(maximum value−reading)/(maximum value−minimum value)*100.
(§3) The “maximum value” was the DMSO control, the “minimum value” indicates the cell-free control group.
(§4) Graphpad Prism software was used to perform curve fitting and obtain IC50 value.
Refer to Table 2 for the IC50 data of some compounds in the examples inhibiting MIA-PACA-2 cells.

H358 cells = experiment: Cell proliferation assay, H358 cells (Cell-titer Glo); format: cell-based; conditions: Homo sapiens, NCI-H358; inhibiting H358 cells, 96-well ultra-low adsorption plate, 96 h incubation, Cell-titer Glo luminescence
Description: as §1, with “the H358” for “the MIA-PACA-2”, “cells on” for “cells into”, “plate with 2000 cells and 190” for “plate at 600 cells, 160”, “added 10” for “added 40”, “10000, 3333.3, 1111.1, 370.4, 123.5, 41.2, 13.7, 4.6, 1.5,” for “10000, 2000, 400, 80, 16, 3.2, 0.64, 0.12, 0.025,”
as §2, §3, §4
Refer to table 3 for the IC50 data of some compounds in the Examples for inhibiting H358 cells.

| Structure (SMILES) | pIC50 (MIA-PACA-2 cells) | pIC50 (H358 cells) |
| --- | --- | --- |
| C=CC(=O)N1CCn2c(nnc2-c2cc(F)c(-c3c(O)cccc3F)c(Cl)c2)C1 [Example 1, 1-(3-(2-chloro-2′,6-difluoro-6′-hydroxy-[1,1′-biphenyl]-4-yl)-5,6-dihydro-[1,2,4]triazolo[4,3-a]pyrazin-7(8H)-yl)prop-2-en-1-one] | 5.00 to 6.00 | 5.00 to 6.00 |
| C=CC(=O)N1CCn2c(nnc2-c2cc(F)c(-c3c(O)ccc(Cl)c3F)c(Cl)c2)C1 [Example 2, 1-(3-(2,3′-dichloro-2′,6-difluoro-6′-hydroxy-[1,1′-biphenyl]-4-yl)-5,6-dihydro-[1,2,4]triazolo[4,3-a]pyrazin-7(8H)-yl)prop-2-en-1-one] | ≥ 6.00 | ≥ 6.00 |
| C=CC(=O)N1CCn2c(nnc2-c2cc(F)c(-c3c(O)c(Cl)cc(Cl)c3F)c(Cl)c2)C1 [Example 3, 1-(3-(2,3′,5′-trichloro-2′,6-difluoro-6′-hydroxy-[1,1′-biphenyl]-4-yl)-5,6-dihydro-[1,2,4]triazolo[4,3-a]pyrazin-7(8H)-yl)prop-2-en-1-one] | ≥ 6.00 | ≥ 6.00 |
| C=C(F)C(=O)N1CCn2c(nnc2-c2cc(F)c(-c3c(O)cccc3F)c(Cl)c2)C1 [Example 4, 1-(3-(2-chloro-2′,6-difluoro-6′-hydroxy-[1,1′-biphenyl]-4-yl)-5,6-dihydro-[1,2,4]triazolo[4,3-a]pyrazin-7(8H)-yl)-2-fluoroprop-2-en-1-one] | < 5.00 | < 5.00 |
| C=CC(=O)N1CCn2c(nnc2-c2cc(F)c(-c3c(C)ccc4[nH]ncc34)c(Cl)c2)C1 [Example 5, 1-(3-(3-chloro-5-fluoro-4-(5-methyl-1H-indazol-4-yl)phenyl)-5,6-dihydro-[1,2,4]triazolo[4,3-a]pyrazin-7(8H)-yl)prop-2-en-1-one] | 5.00 to 6.00 | 5.00 to 6.00 |
| C=CC(=O)N1CCn2c(-c3cc(F)c(-c4c(O)cccc4F)c(Cl)c3)cnc2C1 [Example 6, 1-(3-(2-chloro-2′,6-difluoro-6′-hydroxy-[1,1′-biphenyl]-4-yl)-5,6-dihydroimidazo[1,2-a]pyrazin-7(8H)-yl)prop-2-en-1-one] | ≥ 6.00 | 5.00 to 6.00 |
| C=CC(=O)N1CCn2c(nnc2-c2cc(F)c(-c3c(F)ccc(Cl)c3N)c(Cl)c2)C1 [Example 7, 1-(3-(2′-amino-2,3′-dichloro-6,6′-difluoro-[1,1′-biphenyl]-4-yl)-5,6-dihydro-[1,2,4]triazolo[4,3-a]pyrazin-7(8H)-yl)prop-2-en-1-one] | < 5.00 | < 5.00 |
| C=CC(=O)N1CCn2c(cnc2-c2cc(F)c(-c3c(O)cccc3F)c(Cl)c2)C1 [Example 8, 1-(3-(2-chloro-2′,6-difluoro-6′-hydroxy-[1,1′-biphenyl]-4-yl)-5,6-dihydroimidazo[1,5-a]pyrazin-7(8H)-yl)prop-2-en-1-one] | 5.00 to 6.00 | 5.00 to 6.00 |
| C=CC(=O)N1CCn2c(cnc2-c2cc(F)c(-c3c(F)ccc(Cl)c3O)c(Cl)c2)C1 [Example 9, 1-(3-(2,3′-dichloro-6,6′-difluoro-2′-hydroxy-[1,1′-biphenyl]-4-yl)-5,6-dihydroimidazo[1,5-a]pyrazin-7(8H)-yl)prop-2-en-1-one] | 5.00 to 6.00 |  |
| C=CC(=O)N1CCn2c(cnc2-c2cc(F)c(-c3c(O)c(Cl)cc(Cl)c3F)c(Cl)c2)C1 [Example 10, 1-(3-(2,3′,5′-trichloro-2′,6-difluoro-6′-hydroxy-[1,1′-biphenyl]-4-yl)-5,6-dihydroimidazo[1,5-a]pyrazin-7(8H)-yl)prop-2-en-1-one] | < 5.00 |  |
| C=CC(=O)N1CCn2c(nnc2-c2cc(F)c(-c3c(O)cccc3F)c(C=C)c2)C1 [Example 11, 1-(3-(2,2′-difluoro-6′-hydroxy-6-vinyl-[1,1′-biphenyl]-4-yl)-5,6-dihydro-[1,2,4]triazolo[4,3-a]pyrazin-7(8H)-yl)prop-2-en-1-one] | < 5.00 |  |
| C=CC(=O)N1CCn2c(nc(-c3ccccc3C(C)C)c2-c2cc(F)c(-c3c(O)cccc3F)c(Cl)c2)C1 [Example 12, 1-(3-(2-chloro-2′,6-difluoro-6′-hydroxy-[1,1′-biphenyl]-4-yl)-2-(2-isopropylphenyl)-5,6-dihydroimidazo[1,2-a]pyrazin-7(8H)-yl)prop-2-en-1-one] | < 5.00 |  |
| C=CC(=O)N1CCn2c(nc(-c3ccccc3C(C)C)c2-c2cc(F)c(-c3c(F)ccc(Cl)c3O)c(Cl)c2)C1 [Example 13, 1-(3-(2,3′-dichloro-6,6′-difluoro-2′-hydroxy-[1,1′-biphenyl]-4-yl)-2-(2-isopropylphenyl)-5,6-dihydroimidazo[1,2-a]pyrazin-7(8H)-yl)prop-2-en-1-one] | ≥ 6.00 |  |
| C=CC(=O)N1CCn2c(nc(-c3ccccc3C(C)C)c2-c2cc(F)c(-c3c(O)c(Cl)cc(Cl)c3F)c(Cl)c2)C1 [Example 14, 1-(2-(2-isopropylphenyl)-3-(2,3′,5′-trichloro-2′,6-difluoro-6′-hydroxy-[1,1′-biphenyl]-4-yl)-5,6-dihydroimidazo[1,2-a]pyrazin-7(8H)-yl)prop-2-en-1-one] | 5.00 to 6.00 |  |
| C=CC(=O)N1CCn2c(-c3cc(F)c(-c4c(F)ccc(Cl)c4O)c(Cl)c3)cnc2C1 [Example 15, 1-(3-(2,3′-dichloro-6,6′-difluoro-2′-hydroxy-[1,1′-biphenyl]-4-yl)-5,6-dihydroimidazo[1,2-a]pyrazin-7(8H)-yl)prop-2-en-1-one] | < 5.00 |  |
| C=CC(=O)N1CCn2c(nnc2-c2cc(Cl)c(-c3c(F)ccc(Cl)c3O)c(OCC(F)(F)F)c2)C1 [Example 16, 1-(3-(2,3′-dichloro-6′-fluoro-2′-hydroxy-6-(2,2,2-trifluoroethoxy)-[1,1′-biphenyl]-4-yl)-5,6-dihydro-[1,2,4]triazolo[4,3-a]pyrazin-7(8H)-yl)prop-2-en-1-one] | 5.00 to 6.00 |  |
| C=CC(=O)N1CCn2c(nnc2-c2cc(Cl)c(-c3c(O)cccc3F)c(OCC(F)(F)F)c2)C1 [Example 17, 1-(3-(2-chloro-2′-fluoro-6′-hydroxy-6-(2,2,2-trifluoroethoxy)-[1,1′-biphenyl]-4-yl)-5,6-dihydro-[1,2,4]triazolo[4,3-a]pyrazin-7(8H)-yl)prop-2-en-1-one] | ≥ 6.00 |  |
| C=CC(=O)N1CCn2c(nc(C(F)(F)F)c2-c2cc(F)c(-c3c(F)ccc(Cl)c3O)c(Cl)c2)C1 [Example 18, 1-(3-(2,3′-dichloro-6,6′-difluoro-2′-hydroxy-[1,1′-biphenyl]-4-yl)-2-(trifluoromethyl)-5,6-dihydroimidazo[1,2-a]pyrazin-7(8H)-yl)prop-2-en-1-one] | < 5.00 |  |
